These results are taken from patent publication US8445497B2, “Compounds for the treatment of hepatitis C” (Bristol-Myers Squibb Company, priority 2010, dated 2013).

Data set [1] deals with HCV. The note with it: single agent: transient decrease then rebound; more robust drop with interferon and ribavirin; cited from earlier work.
The conditions of data set [2]: extended dosing of the combination regimens with interferon and ribavirin; cited from earlier work.
Data set [3] relates to HCV. The note with it: combination therapy, Poynard et al. 1998; cited from earlier work.
The test system of data set [4] is genotype 1a or 1b HCV replicon in Huh-7 cells. Kind of data set: HCV replicon luciferase assay. Format: cell-based. Particulars: Hepatitis C virus, 72 h; Huh-7 HCV replicon, Renilla luciferase, 3 days; genotype 1a or 1b not stated. Here is the method:
Cell lines. The cell lines used to evaluate compounds consist of a human hepatocyte derived cell line (Huh-7) that constitutively expresses a genotype 1a or 1b HCV replicon containing a Renilla luciferase reporter gene. These cells were maintained in Dulbecco's modified Eagle medium (DMEM) containing 10% FBS, 100 U/mL penicillin/streptomycin and 1.0 mg/mL G418.
HCV replicon luciferase assay. To evaluate compound efficacy, HCV replicon cells were seeded in 96-well plates in DMEM containing 10% FBS at a cell density of 10^4/well. Following incubation at 37° C. overnight, compounds serially diluted in DMSO were added to the cell plates. Alternatively, titrated compounds were transferred to sterile 384-well tissue-culture treated plates and the plates seeded with 50 μL of cells at a density of 2.4×10^3 cells/well in DMEM containing 4% FCS (final DMSO concentration at 0.5%). After 3 days incubation at 37° C., cells were analyzed for Renilla Luciferase activity using the EnduRen substrate (Promega cat #E6485) according to the manufacturer's directions. Briefly, the EnduRen substrate was diluted in DMEM and then added to the plates to a final concentration of 7.5 μM. The plates were incubated for at least 1 h at 37° C. then read on a TopCount NXT Microplate Scintillation and Luminescence Counter (Packard) or Viewlux Imager (PerkinElmer) using a luminescence program. […]
(A replicon is a self-replicating genome or part of one, used to study replication in cells.)

The next data set concerns the target T1, HCV NS5B (Hepatitis C virus genotype 1b, UniProt Q9WMX2).
T1 construct: The protein was expressed with an 18 amino acid C-terminal truncation to enhance the solubility; made in house; host or cells: E. coli BL21(DE3)
Kind of data set: HCV NS5B RdRp enzyme assay. Type of data set: biochemical. The note with it: HCV NS5B RdRp genotype 1b. How it is done:
HCV NS5B RdRp cloning, expression, and purification. The cDNA encoding the NS5B protein of HCV, genotype 1b, was cloned into the pET21a expression vector. The protein was expressed with an 18 amino acid C-terminal truncation to enhance the solubility. The E. coli competent cell line BL21(DE3) was used for expression of the protein. Cultures were grown at 37° C. for ˜4 hours until the cultures reached an optical density of 2.0 at 600 nm. The cultures were cooled to 20° C. and induced with 1 mM IPTG. Fresh ampicillin was added to a final concentration of 50 μg/mL and the cells were grown overnight at 20° C.
Cell pellets (3 L) were lysed for purification to yield 15-24 mgs of purified NS5B. The lysis buffer consisted of 20 mM Tris-HCl, pH 7.4, 500 mM NaCl, 0.5% triton X-100, 1 mM DTT, 1 mM EDTA, 20% glycerol, 0.5 mg/ml lysozyme, 10 mM MgCl2, 15 ug/ml deoxyribonuclease I, and Complete TM protease inhibitor tablets (Roche). After addition of the lysis buffer, frozen cell pellets were resuspended using a tissue homogenizer. To reduce the viscosity of the sample, aliquots of the lysate were sonicated on ice using a microtip attached to a Branson sonicator. […]
Standard HCV NS5B RdRp enzyme assay. […] Plates were read on a Packard Top Count NXT after >1 hr incubation at room temperature. […]

T1 sequence (Q9WMX2 2420-2992): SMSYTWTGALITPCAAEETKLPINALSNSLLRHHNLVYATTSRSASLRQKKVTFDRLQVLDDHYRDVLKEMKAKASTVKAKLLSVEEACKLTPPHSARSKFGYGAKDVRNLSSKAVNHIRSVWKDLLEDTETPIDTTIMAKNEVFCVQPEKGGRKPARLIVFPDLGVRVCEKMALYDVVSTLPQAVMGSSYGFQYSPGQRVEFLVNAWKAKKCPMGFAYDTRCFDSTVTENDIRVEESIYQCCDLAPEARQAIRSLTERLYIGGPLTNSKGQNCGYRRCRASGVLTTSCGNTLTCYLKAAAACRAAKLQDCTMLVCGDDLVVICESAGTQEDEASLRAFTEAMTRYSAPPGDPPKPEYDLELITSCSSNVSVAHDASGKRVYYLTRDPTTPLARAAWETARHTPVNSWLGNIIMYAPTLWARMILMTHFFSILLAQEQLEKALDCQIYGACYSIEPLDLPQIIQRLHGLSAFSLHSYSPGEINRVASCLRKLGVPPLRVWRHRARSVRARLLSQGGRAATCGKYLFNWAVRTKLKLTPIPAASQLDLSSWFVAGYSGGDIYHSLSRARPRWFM

On to `CNC(=O)c1c(-c2ccc(F)cc2)oc2cc(N(CCO)S(C)(=O)=O)c(C3CC3)cc12` [HCV-796], for which the “HCV RNA levels in patients” value in the data set on HCV [1] is recorded as “showed an ability to reduce HCV RNA levels in patients”. In addition, the hepatic toxicity entry in data set [2] is recorded as “hepatic toxicity observed”. For the molecule alpha-interferon and ribavirin, the “sustained efficacy, share of patients” value with HCV [3] is given as 40%. Broadly, the EC50 is the concentration giving half of the maximal effect. A higher EC50 goes with lower potency in that assay. As usually defined, the IC50 is the midpoint of a concentration-inhibition curve. Low values mean greater potency in that assay, high ones weaker potency in that assay. The molecule `CNC(=O)c1c(-c2ccc(Oc3ccc(F)cc3)cc2)oc2ccc(-c3cc(C(=O)NC4(c5ncccn5)CC4)c(OC)cc3C)c(F)c12` [4-Fluoro-2-(4-(4-fluorophenoxy)phenyl)-5-(4-methoxy-2-methyl-5-(1-(pyrimidin-2-yl)cyclopropylcarbamoyl)phenyl)-N-methylbenzofuran-3-carboxamide] yielded an EC50 in data set [4] of 5 µM. Further, it took 24 µM to reach half-maximal inhibition against HCV NS5B (IC50).
